The record followed here is BindingDB's records for patent US9796704 (SYMPHONY EVOLUTION, INC., 2017).

What is called IC50 is the concentration that gives 50% inhibition. Read a low IC50 as higher potency.

Holding throughout (assay): AlphaScreen Assay
A general note: In Alpha technology, singlet oxygen from a donor bead excites a nearby acceptor bead.

Assay [1] concerns the target Vascular endothelial growth factor receptor 2 (Homo sapiens, UniProt P35968).
Experimental: (§1) In AlphaScreen, when the donor and acceptor beads are close in proximity, a series of photochemical events will give rise to a fluorescent signal upon light activation. Here we use biotinylated poly-(Glu, Tyr) 4:1 as the kinase substrate, streptavidin-coated donor beads and anti-phosphortyrosine antibody PY100-coated acceptor beads. […] Compounds, ATP, biotinylated poly-(Glu, Tyr) and kinases are mixed in a volume of 20 μL for 1 hr at ambient temperature using Greiner 384-well white clear bottom medium binding plates. Then 10 uL solution containing 15-30 mg/mL AlphaScreen beads, 75 mM Hepes, pH 7.4, 300 mM NaCl, 120 mM EDTA, 0.3% BSA and 0.03% Tween-20 is added to each well. After 2-16 hr incubation of the beads, plates are read in a Perkin Elmer AlphaQuest reader (available from PerkinElmer Life and Analytical Sciences, Inc., of Boston Mass.).
In assay [2] the target is Receptor tyrosine-protein kinase erbB-2 (Homo sapiens, UniProt P04626).
Experimental: as §1
For another assay, the target named is Ephrin type-A receptor 2 (Homo sapiens, UniProt P29317).
For the next assay, the target named is T1, Ephrin type-B receptor 4 (Homo sapiens, UniProt P54760).
T1 sequence (P54760 whole entry): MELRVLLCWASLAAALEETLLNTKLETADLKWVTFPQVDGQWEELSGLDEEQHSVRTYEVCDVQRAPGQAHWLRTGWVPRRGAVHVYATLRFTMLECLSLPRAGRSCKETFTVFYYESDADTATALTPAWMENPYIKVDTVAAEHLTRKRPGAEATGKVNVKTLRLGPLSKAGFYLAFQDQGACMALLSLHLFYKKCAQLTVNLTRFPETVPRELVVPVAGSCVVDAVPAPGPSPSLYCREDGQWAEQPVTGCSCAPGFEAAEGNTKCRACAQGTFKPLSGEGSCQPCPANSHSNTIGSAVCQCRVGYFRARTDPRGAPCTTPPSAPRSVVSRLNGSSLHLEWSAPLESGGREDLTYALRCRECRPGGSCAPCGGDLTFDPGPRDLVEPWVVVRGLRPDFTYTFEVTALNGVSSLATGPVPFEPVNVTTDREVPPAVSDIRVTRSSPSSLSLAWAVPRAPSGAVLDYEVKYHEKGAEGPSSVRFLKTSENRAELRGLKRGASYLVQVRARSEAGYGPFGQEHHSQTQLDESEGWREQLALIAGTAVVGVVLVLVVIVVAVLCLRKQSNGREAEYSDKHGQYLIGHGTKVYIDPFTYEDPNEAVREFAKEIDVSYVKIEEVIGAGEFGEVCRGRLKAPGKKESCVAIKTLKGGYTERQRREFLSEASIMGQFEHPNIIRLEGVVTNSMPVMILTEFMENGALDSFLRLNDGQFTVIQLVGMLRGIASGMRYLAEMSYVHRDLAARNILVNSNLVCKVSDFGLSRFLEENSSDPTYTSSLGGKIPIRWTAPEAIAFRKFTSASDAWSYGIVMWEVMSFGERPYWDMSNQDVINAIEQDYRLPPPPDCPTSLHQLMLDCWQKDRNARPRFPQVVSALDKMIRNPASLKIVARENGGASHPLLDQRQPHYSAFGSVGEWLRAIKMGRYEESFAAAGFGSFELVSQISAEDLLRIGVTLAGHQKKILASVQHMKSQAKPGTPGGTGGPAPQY

Sequence of Vascular endothelial growth factor receptor 2 (P35968 whole entry): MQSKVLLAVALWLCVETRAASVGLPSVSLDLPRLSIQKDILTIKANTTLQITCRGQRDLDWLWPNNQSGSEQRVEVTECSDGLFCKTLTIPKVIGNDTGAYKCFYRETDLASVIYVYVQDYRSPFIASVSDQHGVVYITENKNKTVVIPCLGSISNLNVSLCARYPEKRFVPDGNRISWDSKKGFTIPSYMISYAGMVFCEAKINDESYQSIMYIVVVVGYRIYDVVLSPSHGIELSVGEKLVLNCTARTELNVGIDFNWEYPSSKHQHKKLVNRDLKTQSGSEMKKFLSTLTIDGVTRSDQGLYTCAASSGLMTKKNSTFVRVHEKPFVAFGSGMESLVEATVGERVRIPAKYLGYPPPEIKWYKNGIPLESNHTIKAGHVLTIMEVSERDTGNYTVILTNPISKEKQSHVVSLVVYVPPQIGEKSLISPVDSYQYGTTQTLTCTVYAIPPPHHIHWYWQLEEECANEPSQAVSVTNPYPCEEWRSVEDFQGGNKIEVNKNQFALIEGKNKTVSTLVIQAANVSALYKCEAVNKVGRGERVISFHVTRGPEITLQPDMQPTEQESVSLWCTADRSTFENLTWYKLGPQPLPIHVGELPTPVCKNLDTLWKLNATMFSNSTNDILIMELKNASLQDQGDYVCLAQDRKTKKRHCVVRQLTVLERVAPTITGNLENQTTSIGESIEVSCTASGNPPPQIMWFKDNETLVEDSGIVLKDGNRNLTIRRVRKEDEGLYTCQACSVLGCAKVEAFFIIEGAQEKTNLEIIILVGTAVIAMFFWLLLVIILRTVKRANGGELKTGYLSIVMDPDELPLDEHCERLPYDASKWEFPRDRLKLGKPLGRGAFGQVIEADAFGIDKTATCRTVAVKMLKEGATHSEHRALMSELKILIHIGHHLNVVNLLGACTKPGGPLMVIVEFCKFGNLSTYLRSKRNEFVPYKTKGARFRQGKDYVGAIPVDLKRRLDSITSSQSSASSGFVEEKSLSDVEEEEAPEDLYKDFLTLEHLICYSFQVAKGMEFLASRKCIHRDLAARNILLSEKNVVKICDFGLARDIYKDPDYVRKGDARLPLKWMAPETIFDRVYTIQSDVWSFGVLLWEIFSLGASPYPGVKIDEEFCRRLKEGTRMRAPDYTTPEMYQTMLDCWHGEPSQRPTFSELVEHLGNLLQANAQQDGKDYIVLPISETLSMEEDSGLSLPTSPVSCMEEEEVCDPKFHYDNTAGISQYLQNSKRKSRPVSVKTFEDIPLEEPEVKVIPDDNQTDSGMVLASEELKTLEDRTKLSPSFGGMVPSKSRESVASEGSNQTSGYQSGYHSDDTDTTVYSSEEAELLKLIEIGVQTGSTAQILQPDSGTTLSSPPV
Sequence of Ephrin type-A receptor 2 (P29317 whole entry): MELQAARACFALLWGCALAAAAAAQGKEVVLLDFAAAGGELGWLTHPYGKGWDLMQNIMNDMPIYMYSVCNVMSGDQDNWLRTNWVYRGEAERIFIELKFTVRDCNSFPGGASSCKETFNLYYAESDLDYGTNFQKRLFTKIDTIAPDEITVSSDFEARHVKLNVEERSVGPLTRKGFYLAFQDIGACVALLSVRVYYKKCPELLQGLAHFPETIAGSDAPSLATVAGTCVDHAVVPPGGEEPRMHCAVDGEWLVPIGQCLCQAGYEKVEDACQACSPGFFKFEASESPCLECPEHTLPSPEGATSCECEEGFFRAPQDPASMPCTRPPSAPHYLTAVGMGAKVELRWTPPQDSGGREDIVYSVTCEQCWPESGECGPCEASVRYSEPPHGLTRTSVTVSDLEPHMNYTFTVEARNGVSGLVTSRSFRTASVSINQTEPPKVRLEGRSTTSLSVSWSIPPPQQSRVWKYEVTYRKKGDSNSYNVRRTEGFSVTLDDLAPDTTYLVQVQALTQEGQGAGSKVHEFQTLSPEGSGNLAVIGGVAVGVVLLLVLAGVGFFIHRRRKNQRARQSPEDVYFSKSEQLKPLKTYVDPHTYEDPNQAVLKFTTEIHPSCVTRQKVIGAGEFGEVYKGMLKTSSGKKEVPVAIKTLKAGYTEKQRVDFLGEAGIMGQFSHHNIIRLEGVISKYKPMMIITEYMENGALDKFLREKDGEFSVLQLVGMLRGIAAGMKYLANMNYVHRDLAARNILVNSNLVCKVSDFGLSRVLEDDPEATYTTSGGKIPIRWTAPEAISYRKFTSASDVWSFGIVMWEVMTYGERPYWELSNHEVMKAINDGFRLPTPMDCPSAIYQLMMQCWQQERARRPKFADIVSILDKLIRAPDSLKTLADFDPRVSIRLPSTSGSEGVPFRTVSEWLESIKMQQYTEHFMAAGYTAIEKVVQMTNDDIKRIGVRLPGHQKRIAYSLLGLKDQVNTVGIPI
Sequence of Receptor tyrosine-protein kinase erbB-2 (P04626 whole entry): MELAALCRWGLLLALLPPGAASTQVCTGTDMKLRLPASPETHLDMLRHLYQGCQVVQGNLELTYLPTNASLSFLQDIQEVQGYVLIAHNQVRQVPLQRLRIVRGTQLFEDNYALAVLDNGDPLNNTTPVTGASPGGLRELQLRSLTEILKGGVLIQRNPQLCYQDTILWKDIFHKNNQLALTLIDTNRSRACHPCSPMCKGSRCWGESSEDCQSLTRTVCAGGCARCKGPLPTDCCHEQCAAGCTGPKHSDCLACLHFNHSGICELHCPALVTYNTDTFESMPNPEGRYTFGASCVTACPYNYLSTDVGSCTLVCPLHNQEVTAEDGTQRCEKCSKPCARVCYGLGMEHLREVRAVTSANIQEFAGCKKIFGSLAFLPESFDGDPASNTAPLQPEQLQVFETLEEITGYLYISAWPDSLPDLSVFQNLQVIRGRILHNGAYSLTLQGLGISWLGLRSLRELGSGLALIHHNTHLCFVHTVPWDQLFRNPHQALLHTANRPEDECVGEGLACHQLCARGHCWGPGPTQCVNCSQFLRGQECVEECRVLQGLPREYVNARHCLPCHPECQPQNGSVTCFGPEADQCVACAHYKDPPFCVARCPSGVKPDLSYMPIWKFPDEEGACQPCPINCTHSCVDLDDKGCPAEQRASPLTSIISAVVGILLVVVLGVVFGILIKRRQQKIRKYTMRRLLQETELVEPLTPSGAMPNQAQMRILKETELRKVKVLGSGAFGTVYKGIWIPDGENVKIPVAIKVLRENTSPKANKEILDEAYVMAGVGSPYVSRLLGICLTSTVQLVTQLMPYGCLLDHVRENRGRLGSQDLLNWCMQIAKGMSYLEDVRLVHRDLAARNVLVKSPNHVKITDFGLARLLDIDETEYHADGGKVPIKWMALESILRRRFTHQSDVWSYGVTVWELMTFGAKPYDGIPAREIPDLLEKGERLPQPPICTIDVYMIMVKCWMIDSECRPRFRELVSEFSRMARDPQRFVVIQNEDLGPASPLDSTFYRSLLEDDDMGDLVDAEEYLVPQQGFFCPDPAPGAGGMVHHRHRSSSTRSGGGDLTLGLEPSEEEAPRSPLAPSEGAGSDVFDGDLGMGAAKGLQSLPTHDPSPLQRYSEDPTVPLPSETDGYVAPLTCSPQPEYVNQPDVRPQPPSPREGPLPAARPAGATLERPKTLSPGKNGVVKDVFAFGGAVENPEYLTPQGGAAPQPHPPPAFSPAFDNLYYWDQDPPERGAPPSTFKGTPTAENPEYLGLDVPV
Experimental for Ephrin type-A receptor 2: as §1
Experimental for Ephrin type-B receptor 4: as §1

For `COc1cc2c(Nc3ccc(Br)c(Cl)c3F)ncnc2cc1OC[C@@H]1C[C@@H]2CN(S(C)(=O)=O)C[C@@H]2C1` [US9796704, Entry 6], the IC50 result is “in the range around 0.525 µM” in assay [1], “in the range around 0.525 µM” in assay [2], “in the range around 0.525 µM” on Ephrin type-A receptor 2 and less than 0.05 µM against Ephrin type-B receptor 4.
`COc1cc2c(Nc3ccc(Cl)c(Cl)c3F)ncnc2cc1OC[C@H]1C[C@@H]2CN(C)C[C@@H]2C1` [US9796704, Entry 9]: the IC50 result (in assay [1]; in assay [2]; against Ephrin type-A receptor 2; against Ephrin type-B receptor 4) was “in the range around 0.525 µM” in each case.
On to `COc1cc2c(Nc3ccc(Cl)c(Cl)c3)ncnc2cc1OC[C@@H]1CN2CCC[C@H]2CO1` [US9796704, Entry 34], for which the IC50 entry in assay [1] is “in the range around 0.525 µM”; in assay [2] it was less than 0.05 µM; against Ephrin type-A receptor 2, “in the range around 0.525 µM”; at Ephrin type-B receptor 4, “in the range around 0.525 µM”.
`COc1cc2c(Nc3ccc(Cl)c(Cl)c3)ncnc2cc1OC[C@H]1CN2CCC[C@H]2CO1` [US9796704, Entry 35]: the IC50 entry (in assay [2]; against Ephrin type-A receptor 2; against Ephrin type-B receptor 4) was “in the range around 0.525 µM” in each case.
Turning to `COc1cc2c(Nc3ccc(Br)c(Cl)c3F)ncnc2cc1OC[C@@H]1CN2CCC[C@H]2CO1` [US9796704, Entry 37], the half-inhibitory concentration (IC50) was less than 0.05 µM in assay [2] and “in the range around 0.525 µM” against Ephrin type-B receptor 4.
Regarding `COc1cc2c(Nc3ccc(F)c(F)c3)ncnc2cc1O[C@@H]1CO[C@@H]2[C@H]1OC[C@H]2F` [US9796704, Entry 111], the IC50 result (in assay [1]; in assay [2]; on Ephrin type-A receptor 2; against Ephrin type-B receptor 4) was “in the range around 0.525 µM” in each case.
`COc1cc2c(Nc3cc(C)cc(C)c3)ncnc2cc1O[C@@H]1CO[C@@H]2[C@H]1OC[C@H]2F` [US9796704, Entry 133]: the IC50 entry (in assay [1]; against Ephrin type-A receptor 2; on Ephrin type-B receptor 4) was “in the range around 0.525 µM” in each case.
Take `COc1cc(Nc2ncnc3cc(O[C@@H]4CO[C@@H]5[C@H]4OC[C@H]5F)c(OC)cc23)c(OC)cc1Cl` [US9796704, Entry 136]: the IC50 entry (in assay [1]; against Ephrin type-A receptor 2; at Ephrin type-B receptor 4) was “in the range around 0.525 µM” throughout.
For the compound `COc1cc2c(Nc3ccc(Cl)c(Cl)c3)ncnc2cc1OCc1cccc2nsnc12` [US9796704, Entry 159], the IC50 entry (in assay [1]; on Ephrin type-A receptor 2; on Ephrin type-B receptor 4) was “in the range around 0.525 µM” throughout.
`COc1cc2c(Nc3ccc(Cl)c(Cl)c3)ncnc2cc1OCc1nc2ccccc2s1` [US9796704, Entry 162]: the IC50 entry (in assay [1]; against Ephrin type-A receptor 2; against Ephrin type-B receptor 4) was “in the range around 0.525 µM” throughout.
As to `COc1cc2c(Nc3ccc(Cl)c(Cl)c3)ncnc2cc1OCc1cnn(-c2ccccc2)c1` [US9796704, Entry 165], the results for the half-maximal inhibitory concentration (IC50) entry (in assay [1]; at Ephrin type-A receptor 2; at Ephrin type-B receptor 4) were “in the range around 10.5 µM”, “in the range around 0.525 µM” and “in the range around 0.525 µM”, respectively.
Turning to `COc1cc2c(Nc3ccc(Cl)c(Cl)c3)ncnc2cc1OCc1nc(-c2ccc(Cl)cc2)no1` [US9796704, Entry 168], the IC50 result (in assay [1]; at Ephrin type-A receptor 2; against Ephrin type-B receptor 4) was “in the range around 0.525 µM” in each case.
As to `COc1cc2c(Nc3ccc(Cl)c(Cl)c3)ncnc2cc1OCc1c(OC)ccc2cc(Br)ccc12` [US9796704, Entry 169], the IC50 result was “in the range around 0.525 µM” in assay [1], “in the range around 10.5 µM” against Ephrin type-A receptor 2 and “in the range around 0.525 µM” against Ephrin type-B receptor 4.
Consider `COc1cc2c(Nc3ccc(Cl)c(Cl)c3)ncnc2cc1OCc1ccc(Cl)nc1` [US9796704, Entry 171], for which the IC50 result was “in the range around 0.525 µM” in assay [1], “in the range around 10.5 µM” on Ephrin type-A receptor 2 and “in the range around 0.525 µM” against Ephrin type-B receptor 4.
For `COc1cc2c(Nc3ccc(Cl)c(Cl)c3)ncnc2cc1OCc1csc(C)n1` [US9796704, Entry 173], the half-maximal inhibitory concentration (IC50) result (in assay [1]; on Ephrin type-A receptor 2; against Ephrin type-B receptor 4) was “in the range around 0.525 µM” each time.
For `COc1cc2c(Nc3ccc(Cl)c(Cl)c3)ncnc2cc1OCc1cc(Cl)cc2c1OCOC2` [US9796704, Entry 174], the IC50 entry in assay [1] is “in the range around 0.525 µM”; on Ephrin type-A receptor 2, “in the range around 10.5 µM”; against Ephrin type-B receptor 4, “in the range around 10.5 µM”.
As for `COc1cc2c(Nc3ccc(Cl)c(Cl)c3)ncnc2cc1OCC1=CC2C(C(F)(F)F)=NN(C)C2S1` (stereo unspecified) [US9796704, Entry 176], the IC50 entry (in assay [1]; at Ephrin type-A receptor 2; at Ephrin type-B receptor 4) was “in the range around 0.525 µM” each time.
`COc1cc2c(Nc3ccc(Cl)c(Cl)c3)ncnc2cc1OCc1cc(-c2ccccc2)no1` [US9796704, Entry 177]: the IC50 entry (in assay [1]; at Ephrin type-A receptor 2; against Ephrin type-B receptor 4) was “in the range around 0.525 µM” each time.
Take `COc1cc2c(Nc3ccc(Cl)c(Cl)c3)ncnc2cc1OCc1c(C)cc(C)cc1C` [US9796704, Entry 178]: the 50% inhibitory concentration (IC50) entry (in assay [1]; against Ephrin type-A receptor 2; against Ephrin type-B receptor 4) was “in the range around 10.5 µM” throughout.
As to `COc1ccc(-c2cc(COc3cc4ncnc(Nc5ccc(Cl)c(Cl)c5)c4cc3OC)on2)cc1` [US9796704, Entry 180], the IC50 result (in assay [1]; against Ephrin type-A receptor 2; on Ephrin type-B receptor 4) was “in the range around 0.525 µM” each time.
In the case of `COc1cc2c(Nc3ccc(Cl)c(Cl)c3)ncnc2cc1OCc1c(C(F)(F)F)nn(C)c1Oc1ccc(Cl)cc1Cl` [US9796704, Entry 181], the IC50 result (in assay [1]; against Ephrin type-A receptor 2; on Ephrin type-B receptor 4) was “in the range around 0.525 µM” throughout.
In the case of `COc1cc2c(Nc3ccc(Cl)c(Cl)c3)ncnc2cc1OC[C@@H]1O[C@@H](OC)[C@@H](O)[C@H](O)[C@H]1O` [US9796704, Entry 194], the IC50 result in assay [1] is “in the range around 0.525 µM”; on Ephrin type-A receptor 2, “in the range around 0.525 µM”; on Ephrin type-B receptor 4 it was less than 0.05 µM.
Regarding `COc1cc2c(Nc3ccc(Cl)c(Cl)c3)ncnc2cc1OCc1noc(COCc2ccccc2)n1` [US9796704, Entry 211], the IC50 result (in assay [1]; on Ephrin type-A receptor 2; against Ephrin type-B receptor 4) was “in the range around 0.525 µM” throughout.
`CCN1CCCC1c1noc(COc2cc3ncnc(Nc4ccc(Cl)c(Cl)c4)c3cc2OC)n1` (stereo unspecified) [US9796704, Entry 255]: the half-maximal inhibitory concentration (IC50) entry in assay [1] was “in the range around 10.5 µM”; in assay [2] it was “in the range around 10.5 µM”; against Ephrin type-A receptor 2, “in the range around 10.5 µM”; against Ephrin type-B receptor 4, “in the range around 0.525 µM”.
